Assay results taken from patent publication US10130651B2, “RNAi Therapy for Hepatitis B Virus Infection” (Arrowhead Pharmaceuticals, Inc., priority 2015, dated 2018).
Ends that are not written are not given here.

Legend:
Format in all cases: in vivo, NOD-SCID mice (pHBV model)
[1] = test system: Hepatitis B surface antigen (HBsAg), Hepatitis B Virus; assay: Serum HBsAg (ELISA) in pHBV model mice after IV MLP delivery peptide+HBV RNAi triggers (Example 7); details: 8 mg/kg MLP delivery peptide without HBV RNAi triggers
Source text: (§1) At day −42, 6 to 8 week old female NOD.CB17-Prkdscid/NcrCrl (NOD-SCID) mice were transiently transfected in vivo with MC-HBV1.3 by hydrodynamic tail vein injection (Yang P L et al. “Hydrodynamic injection of viral DNA: a mouse model of acute hepatitis B virus infection.” PNAS USA 2002 Vol. 99: p. 13825-13830). MC-HBV1.3 is a plasmid-derived minicircle that contains the same terminally redundant human hepatitis B virus sequence HBV1.3 as in the HBV1.3.32 transgenic mice (GenBank accession #V01460) (Guidotti L G et al. “High-level hepatitis B virus replication in transgenic mice. J Virol 1995 Vol. 69, p 6158-6169.). […] At day −21, three weeks post transfection, Hepatitis B surface antigen (HBsAg) HBsAg expression levels in serum were measured by ELISA and the mice were grouped according to average HBsAg expression levels. […]
(§2) At various times, before and after administration of MLP delivery peptide+HBV RNAi triggers, isotonic glucose, or MLP delivery peptide alone, serum HBsAg, serum HBV DNA, or liver HBV RNA were measured. […]
Serum was collected and diluted 10 to 2000-fold in PBS containing 5% nonfat dry milk. […] HBsAg levels were determined with a GS HBsAg EIA 3.0 kit (Bio-Rad Laboratories, Inc., Redmond, Wash.) as described by the manufacturer. […]

[2] = test system: HBV DNA, Hepatitis B Virus; assay: Serum HBV DNA (qPCR) in pHBV model mice (Example 7); details: 8 mg/kg MLP delivery peptide without HBV RNAi triggers
Source text: as §1, §2
The number of copies of HBV genomes in DNA isolated from the pHBV mouse model serum was determined by qPCR. […]
qPCR assays were performed on a 7500 Fast or StepOne Plus Real-Time PCR system (Life Technologies). […] Quantitations of HBV DNA and recovery control plasmid were determined by qPCR reactions performed in triplicate. […]

[3] = Clinical chemistry (liver and renal function) in pHBV model mice; details: day 2 (24 hours post-injection) vs day −1
Procedure: Clinical chemistry markers in mouse serum were measured using a COBAS Integra 400 (Roche Diagnostics, Indianapolis, Ind.) chemical analyzer according to the manufacturer's instructions.
Liver and renal functions were evaluated on day −1 (pre-injection) and day 2 (24 hours post-injection).

## MLP delivery peptide: MLP SEQ ID NO: 650 (GIL MLP, L-form) reversibly masked with CDM-NAG (LIGAILKVLATGLPTLISWIKNKRKQ; also: reversibly masked with CDM-NAG)
[1]
  HBsAg levels in serum: comparable to levels in mice that received a single injection of isotonic glucose
[2]
  HBV DNA levels in serum: comparable to levels in mice that received a single injection of isotonic glucose
[3]
  evidence of toxicity: nor was there any evidence of toxicity
